Entries after “also recorded” stand apart in the source; their conditions may differ.
What was measured:
Assay type in all cases: cell-based, human
p51A mRNA = assay: Northern blotting of the amount of p51 expressed in HCT116 cells after stimulation with drugs; settings: 24 hours treatment, 1 μg/ml trichostatin A, Northern blotting of 20 μg RNA
Procedure: A variety of stimulations including stimulation with a drug were applied to a cell line HCT116 derived from colon cancer to investigate changes in the amount expressed of p51 by Northern blotting. 200,000 cells of HCT116 cells were plated on a culture dish with a diameter of 60 mm, and cultured in the presence of 5% carbon dioxide at 37° C. for two days. The medium used was McCOY's 5A (manufactured by Nisseiken) to which fetal bovine serum (FBS) was added to a final concentration of 10% (referred to hereinafter as McCOY's 5A/10% FBS). Then it was treated with A23187 (0.1 μM, 1 μM), cisplatin (1 μg/ml, 10 μg/ml), CPTcAMP (0.1 μM, 1 μM), etoposide (10 μg/ml, 0.1 μg/ml), genistein (1 μM, 10 μM), ML-236B (1 μg/ml, 10 μg/ml), milurinone (1 μM, 10 μM), mitomycin C (5 μg/ml, 50 μg/ml), NKH477 (0.1 μM, 1 μM), okadaic acid (1 nM, 10 nM), radicicol (0.1 μg/ml, 1 μg/ml), staurosporin (1 nM, 10 nM), taxol (1 μg/ml, 10 μg/ml), trichostatin A (0.1 μg/ml, 1 μg/ml), radiation (50 J/m^2, 100 J/m^2), vitamin D3 (10 nM, 100 nM), vincristine (1 μg/ml, 10 μg/ml), and wortmannin (0.1 μM, […]), and further cultured in the presence of 5% carbon dioxide at 37° C. for 24 hours. Then, from the cells, RNA was prepared using ISOGEN (manufactured by Nippongene). […] Then, the membrane was analyzed on autoradiography.

p51 promoter [1] = assay: Luciferase reporter assay in HCT116 cells transiently transfected with pGL2-neo/p51 promoter; settings: HCT116, 1 μg/ml trichostatin A vs 0, 24 hours
Procedure: Subsequently, the following experiment was carried out in order to perform functional analysis of the p51 promoter region. 200,000 cells of HCT116 were plated on a culture dish with a diameter of 60 mm. The medium used was McCOY's 5A/10% FBS. These were cultured in the presence of 5% carbon dioxide at 37° C. for 48 hours. The medium was replaced with McCOY's 5A containing no serum. Subsequently, 2 μg each of pGL2-neo/p51 promoter or pGL2-neo vector was introduced. The plasmid was introduced using the lipofectamine plus reagent (manufactured by GIBCO BRL). Thus, 125 μl of McCOY's 5A and 8 μl of the plus solution were added to the plasmid solution, stirred well, and then incubated at room temperature for 15 minutes. To this solution, 125 μl of McCOY's 5A and 12 μl of lipofectamine solution were added, stirred well, and then incubated at room temperature for further 15 minutes. This was added to the HCT116 cells incubated by the above procedure, gently mixed, and cultured in the presence of 5% carbon dioxide at 37° C. for three hours to introduce plasmid. Subsequently, the medium was replaced with McCOY's 5A/10% FBS, and cultured in the presence of 5% carbon dioxide at 37° C. for 21 hours. […] For these cells, the luciferase activity was determined to investigate promoter activity. […] The luciferase activity was determined according to the following method. […]

p51 promoter [2] = assay: Luciferase assay in geneticin-selected HCT116/p51 promoter clones
Procedure: The medium in the cell culture dish was removed, and 5 ml of the cell lysis reagent (25 mM Tris-HCl, pH 7.8, 2 mM dithiothreitol, 2 mM CDTA, 0.2% triton X-100, 10% glycerol) was added and incubated at room temperature for 15 minutes.
As the plasmid-introduced cells, the HCT116 cell line was used. 500,000 cells of HCT116 cell were plated on a cuture dish with a diameter of 60 mm. The medium used was McCOY's 5A/10% FBS. These were cultured in the presence of 5% carbon dioxide at 37° C. for 48 hours. The medium was replaced with McCOY's 5A containing no serum. As the plasmid for introduction, two μg of pGL2-neo/p51 promoter was dissolved in 4 μl of the TE solution to prepare a plasmid solution. The plasmid was introduced using the lipofectamine plus reagent (manufactured by GIBCO BRL). Thus, 125 μl of McCOY's 5A and 8 μl of the plus solution were added to the plasmid solution, stirred well, and then incubated at room temperature for 15 minutes. To this solution, 125 μl of McCOY's 5A and 12 μl of the lipofectamine solution were added, stirred well, and then incubated at room temperature for further 15 minutes. This was added to the HCT116 cells cultured by the above procedure, gently mixed, and incubated in the presence of 5% carbon dioxide at 37° C. for three hours to permit the introduction of the plasmid. Subsequently, the medium was replaced with McCOY's 5A/10% FBS, and incubated in the presence of 5% carbon dioxide at 37° C. for 21 hours. Then, the cells were recovered from the culture dish with PBS containing 0.25% trypsin and 0.02% EDTA, and 1% amount thereof was plated onto a culture dish with a diameter of 100 mm. It was further cultured in McCOY's 5A/10% FBS medium in the presence of 5% carbon dioxide at 37° C. for further 72 hours, and then 1.2 mg/ml of geneticin (manufactured by Nacalai Tesque) was added as a selection drug. By replacing the medium every three days, and further culturing in the above condition for further two weeks, the cells into whose genes the plasmid gene was introduced, and became geneticin-resistant, were selected. Subsequently, 50 clones were isolated from the cell group that formed colonies on the dish, and were plated on a 24-well culture dish to continue being cultured.
Thus, the reactivity of these clones to trichostatin A was investigated by the following procedure. 500,000 cells each of the cloned cells were plated on a cuture dish with a diameter of 60 mm. The medium used was McCOY's 5A/10% FBS. These were cultured in the presence of 5% carbon dioxide at 37° C. for 48 hours. Then, trichostatin A was added to the two groups of cells to a final concentration of 0 or 0.1 μg/ml, and cultured in the presence of 5% carbon dioxide at 37° C. for 24 hours. For these cells, their luciferase activity was determined to examine the effect on the p51 promoter activity. The luciferase activity was determined according to the above method.

- measured values of luciferase activity, clone #5 (p51 promoter [2]; HCT116/p51 promoter clone #5, with TsA 0.1 μg/ml, 24 hours (without TsA 3.9)): 29.5
- measured values of luciferase activity, clone #9 (p51 promoter [2]; HCT116/p51 promoter clone #9, with TsA 0.1 μg/ml, 24 hours (without TsA 1.0)): 33.3
- measured values of luciferase activity, clone #17 (p51 promoter [2]; HCT116/p51 promoter clone #17, with TsA 0.1 μg/ml, 24 hours (without TsA 17.0)): 44.1
- measured values of luciferase activity, clone #18 (p51 promoter [2]; HCT116/p51 promoter clone #18, with TsA 0.1 μg/ml, 24 hours (without TsA 6.8)): 14.0
Structure (SMILES): CC(/C=C/C(=O)NO)=C\[C@@H](C)C(=O)c1ccc(N(C)C)cc1 [trichostatin A]
- amount of p51A mRNA (specific band that reacts with p51A-derived cDNA) (p51A mRNA): transactivates p51; also recorded: specific band that reacts with p51A-derived cDNA was only observed
- luciferase activity (fluorescence/chemiluminescence intensity) of pGL2-neo/p51 promoter-introduced cells (p51 promoter [1]): further remarkably enhanced; also recorded: markedly enhanced
- luciferase activity of cloned cells (p51 promoter [2]; several clones, 0.1 μg/ml trichostatin A, 24 hours): significantly enhanced luciferase activity

From patent publication US7038028B1, “Gene encoding promoter domain of tumor suppressor gene P51 and use thereof” (Toshiyuki Sakai, priority 1999, dated 2006)
